Experiments:
Assay type in all cases: in vivo, human
[1] = tested on: forehead microvasculature; assay: Laser Doppler flowmetry of forehead flux, spectral- and time-domain analysis, during phenylephrine challenge and added atropine; settings: for beat-to-beat % change of forehead flux: p<0.05; for flux at the forehead: mean (SE)
Procedure: (§1) With IRB approval, 15 healthy nonsmoking male volunteers were instructed to refrain from caffeine and other known vasoactive compounds for at least 24 hours prior and then lie recumbent in a temperature-regulated room (70±1° F.). Surface electrodes were applied for monitoring ECG and respiration, a noninvasive BP cuff was placed over the brachial artery of one arm, and a 22 gauge intravenous catheter was placed in the opposite arm. In the first eight subjects, laser Doppler flowmetry probes (Periflux 2B, Perimed, Sweden) then were applied to the skin via double-stick tape on the forehead and on the finger contralateral to the BP cuff. In the remaining seven subjects, the sites of laser Doppler monitoring were modified and additional monitors were applied (see Example 3).
(§2) The ECG, respiration, and laser Doppler flux were recorded at 250 Hz with a microprocessor-based system which consisted of analog to digital converters, commercially available data acquisition and waveform analysis software (SnapMaster, HEM Data Corp.) and customized software for beat detection. Each R-wave was identified using the recommended combination of derivative plus threshold detection of the fiducial point of the data sampled at 250 Hz (Task Force of the European Society of Cardiology and the North American Society of Pacing and Electrophysiology: Heart rate variability. Standards of measurement, physiological interpretation, and clinical use. Circulation 1996;93:1043-1065). Ectopic beats were to be replaced with an interpolated value, but none were noted. BP was recorded at 2-5 min intervals.
(§3) Following 5 min of baseline (BASE) monitoring during spontaneous ventilation BASESPONT), each subject breathed in synchrony with an audible metronome at a rate of 12 breaths/min (BASEMETRO); each segment lasted 5 min (of which the middle 200 sec were used for subsequent analysis). Subjects then received an infusion of phenylephrine, which was titrated until there was >25% decline in finger flow for 10 min. […] Five minutes of data during this PHENYL phase were recorded during SPONT and during METRO (PHENYLSPONT and PHENYLMETRO). Atropine was then administered IV in 0.25-0.50 mg increments until HR was at least 33% above PHENYL. Measurements during this PH+ATR phase were recorded for 5 min during each of the two respiratory patterns (PH+ATRSPONT and PH+ATRMETRO). The phenylephrine then was discontinued. The values from all subjects were averaged to provide the overall means±standard error (SE) for the sampling periods that are summarized in the FIGS. 5-8.
(§4) The frequency and power of the oscillations of the R-R intervals and laser Doppler flux values (flux) were characterized by frequency-domain analysis. As described in the prior art (Task Force of the European Society of Cardiology, 1996), the “R-R tachogram” and laser Doppler signal were resampled at 5 Hz, a rate more than sufficient to enable identification of oscillatory frequencies within the frequency range of interest (according to Nyquist's theorem and recent Task Force recommendations (see Task Force of the European Society of Cardiology, 1996)). An APSD was then generated for the R-R interval [APSDR-R (msec^2/Hz vs. Hz)], for the laser Doppler signal taken at the forehead [APSDFOREHEAD FLUX (mVolt^2/Hz vs. Hz)], and for the laser Doppler signal taken at the finger [APSDFINGER (mvolt^2/Hz vs. Hz)] in each subject using a traditional (Parzan) window. For each APSD, 200 sec of data were resampled at 5 Hz, providing a spectral resolution of 0.005 Hz (5 cycles per sec/1,000 data points); the mean value of the signal was subtracted from the data to eliminate its influence on the APSD. For purposes of presentation, each pair of adjacent 0.005 Hz bins was summated to provide bins with a width of 0.01 Hz. […]

[2] = tested on: R-R intervals of the electrocardiogram; assay: ECG R-R interval variability (APSDR-R, time-domain indices), HR and BP during phenylephrine and added atropine; settings: for effect on BP and HR (R-R interval): spontaneous and metronome breathing
Procedure: as §1, §2, §3, §4

finger microvasculature = assay: Laser Doppler flowmetry of finger flux during phenylephrine infusion
Procedure: as §1, with “In the remaining seven subjects, the sites of laser Doppler monitoring were modified and additional monitors were applied (see Example 3).” left out
The ECG, respiration, and laser Doppler flux were recorded at 250 Hz with a microprocessor-based system which consisted of analog to digital converters, commercially available data acquisition and waveform analysis software (SnapMaster, HEM Data Corp.) and customized software for beat detection. […] BP was recorded at 2-5 min intervals.
Following 5 min of baseline (BASE) monitoring during spontaneous ventilation BASESPONT), each subject breathed in synchrony with an audible metronome at a rate of 12 breaths/min (BASEMETRO); each segment lasted 5 min (of which the middle 200 sec were used for subsequent analysis). […] Five minutes of data during this PHENYL phase were recorded during SPONT and during METRO (PHENYLSPONT and PHENYLMETRO). […]

[3] = tested on: forehead flux and R-R oscillations; assay: Cross power spectral density of forehead flux and R-R after normalization to mean; settings: PHENYL
Procedure: FIGS. 11A-D are a graphical comparison of normalized data in the time and frequency-domains, in accordance with the present invention. The signals were normalized prior to time and frequency domain analysis, as follows: (1) LDF flow data was resampled at 5 Hz (data from FIG. 5); (2) mean flow data for the entire study segment (i.e., 5.33522) was determined; and (3) the normalized values were obtained by dividing each resampled value by the corresponding mean value for the study segment. Normalization facilitates visual inspection as well as time-domain and spectral-domain comparisons of the oscillatory signal(s) to values under different circumstances (e.g. baseline vs. challenge state) or to the values of another parameter. Although the values in FIG. 11 were normalized to the mean, it may be preferable in some settings to normalize to the median since this is less affected by outliers. […] The CPSD is calculated by determining the normalized power of a signal from the instantaneous amplitude-spectrum using the following equation: Gab=ave(SaSb*)/df where Gab=instantaneous amplitude spectral density of the sampling channels; Sa=instantaneous amplitude spectrum of channel a; Sb*=complex conjugate of Sb; df=frequency resolution. […]

[4] = tested on: forehead microvasculature; assay: Laser Doppler flowmetry of forehead flux, spectral- and time-domain analysis, during phenylephrine challenge and added atropine

## CN1[C@@H]2CC[C@H]1C[C@@H](OC(=O)C(CO)c1ccccc1)C2 (some centres unmarked) [atropine]
[1]; atropine IV added to phenylephrine infusion (PH+ATR), METRO, p=NS vs BASE
  effect on maxbin power of APSDFOREHEADFLUX: reduced power in the maxbin to near-BASE
[1]; atropine added to phenylephrine
  effect on phenylephrine-induced HF forehead oscillatory signal: nearly eliminated
[2]; atropine added to phenylephrine, SPONT and METRO
  effect on power in the max bin of APSDR-R: decrease significantly below BASE values
[2]
  effect on BP and HR (R-R interval): exacerbated the increase in BP and reversed the prolongation of the R-R interval

## CNC[C@H](O)c1cccc(O)c1 [phenylephrine]
[1]; METRO, PHENYL, BASE 1.3(0.5), p=0.0005
  Power/bin of the APSDFOREHEADFLUX: 6.5(2.2) mvolt^2/Hz
[1]; METRO, PHENYL, BASE 4.9 (1.1)%
  beat-to-beat % change of forehead flux: 11.9 (2.3) %
[1]; METRO, PHENYL, BASE 10.2(5.5), p=0.0003
  Maxbin power of APSDFOREHEADFLUX: 101.7(39.7) mvolt^2/Hz
[1]; PHENYLMETRO
  normalized maxbin power of APSDFOREHEADFLUX, % of average power/bin at BASE: 7,304(1,630) %
[1]; PHENYLMETRO, p>0.4 vs BASE 2.1 (0.5)
  flux at the forehead: 2.3 (0.6) volts
[1]; PHENYLSPONT
  frequency of atropine-sensitive peak in APSDFOREHEADFLUX: 0.14±0.02 Hz
  normalized maxbin power of APSDFOREHEADFLUX, % of average power/bin at BASE: 8,061(4,550) %
[1]; PHENYLSPONT, p>0.3 vs BASE 2.1 (0.5)
  flux at the forehead: 1.5 (0.6) volts
[1]; SPONT, PHENYL, BASE 3.4 (0.3)%
  beat-to-beat % change of forehead flux: 10.7 (2.2) %
[1]; phenylephrine infusion, METRO (0.20 Hz breathing)
  frequency of maxbin / oscillatory peak in APSDFOREHEADFLUX: 0.14±0.02 Hz
Finger microvasculature; phenylephrine infusion
  atropine-sensitive oscillations in the finger: did not induce atropine-sensitive oscillations in the finger
Finger microvasculature; phenylephrine infusion 0.4-0.6 μg/kg/min, both METRO and SPONT, p<0.05
  Finger flux decline: approximately 50%
[2]; METRO, PHENYL, BASE 475.4 (111.7)
  power/bin for each of the 26 bins in the APSDR-R: 393.8 (100.9) msec^2/Hz
[2]; METRO, PHENYL, BASE 799.7 (138.2)%
  normalized power of the max bin (0.2 Hz) of APSDR-R: 1050.0 (205.8) %
[2]; METRO, PHENYL, BASE 4,354 (1556.0)
  power of the max bin of the RF band of APSDR-R: 4060.2 (996.2) msec^2/Hz
[2]; metronome breathing, PHENYL, BASE 4.3 (0.6)%, p=0.2
  beat-to-beat % change of R-R: 5.6 (0.7) %
[2]
  effect on BP and HR (R-R interval): increase in BP and slowing of HR
[2]; spontaneous breathing, PHENYL, BASE 3.2 (0.4)%, p=ns
  beat-to-beat % change of R-R: 3.7 (0.4) %
[3]; BASE 32.3±10.7%, p=0.004
  degree to which maxbin in IF band of CPSDFLUX&R-R reflected power in maxbin of APSDFOREHEADFLUX/mean: 7.0±1.8%
[3]; BASE 33.6±11.0%, p=0.002
  relative degree to which maxbin in IF band of APSDR-R/mean reflected power in maxbin of CPSDFLUX&R-R: 7.3±1.8%
[4]; one subject, phenylephrine infusion, continuous intra-arterial monitoring
  maxbin frequency of the APSDFOREHEAD FLUX: 0.13 Hz
[4]; two subjects, phenylephrine bolus
  frequency at which forehead oscillations increased: approximately 0.13 Hz

Reference: patent US7367941B2, “Detection and characterization of cholinergic oscillatory control in peripheral microvasculature” (Yale University, priority 2000, dated 2008)
